Structures are written as SMILES. Starred links: 1 amine or outer side, 2 acyl side, 3 side chain; linkers in the order of their positions; H or OH if unused. Non-standard residues stand in square brackets, D forms with d. Residues, ends and D or L forms follow the SMILES beside them. Groups on a side chain read outwards from the residue. *: point of attachment. X1 = CCCCCCCCCCCCCCCC(=O)N[C@@H](CCC(=O)N[C@@H](CCC(=O)N[C@@H](CCC(=O)NCCCOCCOCCOCCCNC(=O)CCC(=O)NCCCOCCOCCOCCCNC(=O)CCC(=O)NCCCOCCOCCOCCCN*)C(=O)O)C(=O)O)C(=O)O; Trp(5-F) = N[C@@H](Cc1c[nH]c2ccc(F)cc12)C(=O)O; Suc = O=C(CCC(=O)[*:2])[*:1]; Aib = CC(C)(N)C(=O)O

The target of the test is T1, RXFP1 (Homo sapiens, UniProt Q9HBX9).
T1 construct: OVCAR5 cells expressing endogenous RXFP1; endogenous in cells; host or cells: OVCAR5
T1 sequence (Q9HBX9 1-757): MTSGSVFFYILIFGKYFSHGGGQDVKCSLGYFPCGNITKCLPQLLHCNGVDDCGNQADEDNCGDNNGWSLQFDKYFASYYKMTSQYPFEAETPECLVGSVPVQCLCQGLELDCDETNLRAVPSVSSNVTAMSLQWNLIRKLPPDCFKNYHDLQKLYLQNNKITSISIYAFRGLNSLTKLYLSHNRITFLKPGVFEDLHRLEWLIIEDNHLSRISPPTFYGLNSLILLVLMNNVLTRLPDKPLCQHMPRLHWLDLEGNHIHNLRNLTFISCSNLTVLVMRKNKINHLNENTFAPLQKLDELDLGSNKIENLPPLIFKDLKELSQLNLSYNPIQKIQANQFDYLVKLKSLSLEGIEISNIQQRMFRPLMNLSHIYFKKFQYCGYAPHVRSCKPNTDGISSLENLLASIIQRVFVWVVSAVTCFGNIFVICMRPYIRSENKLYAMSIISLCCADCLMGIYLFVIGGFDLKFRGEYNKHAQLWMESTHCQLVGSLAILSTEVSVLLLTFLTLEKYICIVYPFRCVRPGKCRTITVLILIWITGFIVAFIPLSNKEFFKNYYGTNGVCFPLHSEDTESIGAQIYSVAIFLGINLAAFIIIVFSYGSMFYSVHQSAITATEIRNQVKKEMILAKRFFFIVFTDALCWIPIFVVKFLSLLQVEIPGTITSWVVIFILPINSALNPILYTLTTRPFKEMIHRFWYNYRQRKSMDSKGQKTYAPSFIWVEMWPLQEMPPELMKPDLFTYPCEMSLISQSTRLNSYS
The test can be described thus: OVCAR5 cAMP assay (HTRF). The following applies: for EC50: OVCAR 5 cells expressing endogenous RXFP1, cAMP readout; for Emax: OVCAR 5 cells, maximal cAMP relative to H2-relaxin. The test is classed as cell-based. The method, boiled down: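 Peptide agonism measured as intracellular cAMP (HTRF) after 30 min at 37° C in serum-free medium, following 40 min 1 mM IBMX preincubation of OVCAR5 cells. Nonlinear regression gave EC50; Emax % = 100 × compound maximal cAMP / H2-relaxin maximal cAMP.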
(cAMP levels reflect the balance of adenylyl cyclase and phosphodiesterase activity.)

`CCCCCCCCCCCCCCCC(=O)N[C@@H](CCC(=O)N[C@@H](CCC(=O)N[C@@H](CCC(=O)NCCCOCCOCCOCCCNC(=O)CCC(=O)NCCCOCCOCCOCCCNC(=O)CCC(=O)NCCCOCCOCCOCCCNC(=O)CCC(=O)NCCCC[C@H](NC(=O)CNC(=O)[C@H](CCC(=O)O)NC(=O)C(C)(C)NC(=O)C(C)(C)NC(=O)[C@@H](NC(=O)[C@H](CCCCNC(C)=O)NC(=O)[C@H](C)NC(=O)[C@H](CCCNC(=N)N)NC(=O)[C@@H](NC(=O)[C@H](CCCNC(=N)N)NC(=O)[C@H](CCC(=O)O)NC(=O)[C@H](CCCNC(=N)N)NC(=O)CNC(=O)[C@H](CCC(=O)O)NC(=O)[C@H](CC(C)C)NC(C)=O)C(C)C)[C@@H](C)CC)C(=O)N[C@@H](CO)C(=O)N[C@H](C(=O)N[C@@H](Cc1c[nH]c2ccc(F)cc12)C(=O)N[C@@H](CO)C(=O)NC(C)(C)C(=O)N[C@@H](CCCNC(=N)N)C(=O)N[C@@H](CCCNC(=N)N)C(=O)N[C@@H](CCCCNC(C)=O)C(N)=O)[C@@H](C)O)C(=O)O)C(=O)O)C(=O)O` [compound 92] (Ac-LEGRERVRAK(Ac)I[Aib][Aib]EGK([Suc-X1])ST[Trp(5-F)]S[Aib]RRK(Ac)-NH2): a half-maximal response (EC50) required 0.1 nM and the Emax (in general, the greatest response seen or fitted, relative to the assay's reference) turned out to be 99%.

As to `CCCCCCCCCCCCCCCC(=O)N[C@@H](CCC(=O)N[C@@H](CCC(=O)N[C@@H](CCC(=O)NCCCOCCOCCOCCCNC(=O)CCC(=O)NCCCOCCOCCOCCCNC(=O)CCC(=O)NCCCOCCOCCOCCCNC(=O)CCC(=O)NCCCC[C@H](NC(=O)CNC(=O)[C@H](CCC(=O)O)NC(=O)C(C)(C)NC(=O)C(C)(C)NC(=O)[C@@H](NC(=O)[C@H](CCCCNC(C)=O)NC(=O)[C@H](C)NC(=O)[C@H](CCCNC(=N)N)NC(=O)[C@@H](NC(=O)[C@H](CCCCN)NC(=O)[C@H](CCC(=O)O)NC(=O)[C@H](CCCNC(=N)N)NC(=O)CNC(=O)[C@H](CCC(=O)O)NC(=O)[C@H](CC(C)C)NC(C)=O)C(C)C)[C@@H](C)CC)C(=O)N[C@@H](CO)C(=O)N[C@H](C(=O)N[C@@H](Cc1ccccc1)C(=O)N[C@H](C(=O)N[C@@H](CCCNC(=N)N)C(=O)N[C@@H](CCCNC(=N)N)C(=O)N[C@@H](C)C(=O)N[C@@H](CCCCNC(C)=O)C(N)=O)[C@@H](C)O)[C@@H](C)O)C(=O)O)C(=O)O)C(=O)O` [compound 93] (Ac-LEGREKVRAK(Ac)I[Aib][Aib]EGK([Suc-X1])STFTRRAK(Ac)-NH2), the EC50 (in general, the concentration needed to bring the measured effect to its halfway point) is 0.77 nM and the maximum response (Emax) was 86%.

The compound `CCCCCCCCCCCCCCCC(=O)N[C@@H](CCC(=O)N[C@@H](CCC(=O)N[C@@H](CCC(=O)NCCCOCCOCCOCCCNC(=O)CCC(=O)NCCCOCCOCCOCCCNC(=O)CCC(=O)NCCCOCCOCCOCCCNC(=O)CCC(=O)NCCCC[C@H](NC(=O)CNC(=O)[C@H](CCC(=O)O)NC(=O)C(C)(C)NC(=O)C(C)(C)NC(=O)[C@@H](NC(=O)[C@H](CCCCNC(C)=O)NC(=O)[C@H](C)NC(=O)[C@H](CCCNC(=N)N)NC(=O)[C@@H](NC(=O)[C@H](CCCCN)NC(=O)[C@H](CCC(=O)O)NC(=O)[C@H](CCCNC(=N)N)NC(=O)CNC(=O)[C@H](CCC(=O)O)NC(=O)[C@H](CC(C)C)NC(C)=O)C(C)C)[C@@H](C)CC)C(=O)N[C@@H](CO)C(=O)N[C@H](C(=O)N[C@@H](Cc1ccccc1)C(=O)N[C@H](C(=O)N[C@@H](CCCNC(=N)N)C(=O)N[C@@H](CCCNC(=N)N)C(=O)N[C@@H](C)C(=O)N[C@@H](CCCCNC(C)=O)C(N)=O)C(C)C)[C@@H](C)O)C(=O)O)C(=O)O)C(=O)O` [compound 94] (Ac-LEGREKVRAK(Ac)I[Aib][Aib]EGK([Suc-X1])STFVRRAK(Ac)-NH2) came in with an EC50 of 1.74 nM and an Emax of 88%.
